Calls of active or inactive are those of the source. No cut-off for these calls is given here.
Legend:
[1] = system: HT-1080; experiment: Antitumor activity against human HT1080 cells incubated for 72 hrs by MTT assay; assay type: functional, cell-based; conditions: HT-1080, 72 h
[2] = system: DLD-1; experiment: Antitumor activity against human DLD1 cells incubated for 72 hrs by MTT assay; assay type: functional, cell-based; conditions: DLD-1, 72 h
[3] = Cytotoxicity against bovine aorta vascular endothelial cells assessed as reduction in cell viability incubated for 24 hrs by MTT assay; assay type: cell-based, Bos taurus; conditions: cattle
[4] = system: MCF7; experiment: Antitumor activity against human MCF7 cells incubated for 72 hrs by MTT assay; assay type: functional, cell-based; conditions: MCF7, 72 h
[5] = system: HL-60; experiment: Antitumor activity against human HL60 cells incubated for 72 hrs by MTT assay; assay type: functional, cell-based; conditions: HL-60, 72 h
[6] = system: P388; experiment: Antitumor activity against mouse P388 cells incubated for 72 hrs by MTT assay; assay type: functional, cell-based; conditions: P388, 72 h
[7] = system: KB; experiment: Antitumor activity against human KB cells incubated for 72 hrs by MTT assay; assay type: functional, cell-based
[8] = system: B16-F10; experiment: Antitumor activity against mouse B16F10 cells incubated for 72 hrs by MTT assay; assay type: functional, cell-based; conditions: B16-F10, 72 h
[9] = system: NUGC-3; experiment: Antitumor activity against human NUGC3 cells incubated for 72 hrs by MTT assay; assay type: functional, cell-based; conditions: NUGC-3, 72 h
[10] = system: MCF7; experiment: Antitumor activity against human MCF7 cells at 0.5 uM incubated for 72 hrs by MTT assay; assay type: functional, cell-based
[11] = system: P388; experiment: Antitumor activity against mouse P388 cells at 0.5 uM incubated for 72 hrs by MTT assay; assay type: functional, cell-based
[12] = system: HL-60; experiment: Antitumor activity against human HL60 cells at 0.5 uM incubated for 72 hrs by MTT assay; assay type: functional, cell-based
[13] = system: KB; experiment: Antitumor activity against human KB cells at 0.5 uM incubated for 72 hrs by MTT assay; assay type: functional, cell-based
[14] = system: NUGC-3; experiment: Antitumor activity against human NUGC3 cells at 0.5 uM incubated for 72 hrs by MTT assay; assay type: functional, cell-based
[15] = system: HT-1080; experiment: Antitumor activity against human HT1080 cells at 0.5 uM incubated for 72 hrs by MTT assay; assay type: functional, cell-based
[16] = system: B16-F10; experiment: Antitumor activity against mouse B16F10 cells at 0.5 uM incubated for 72 hrs by MTT assay; assay type: functional, cell-based
[17] = system: DLD-1; experiment: Antitumor activity against human DLD1 cells at 0.5 uM incubated for 72 hrs by MTT assay; assay type: functional, cell-based

| IC50 [1] | IC50 [2] | IC50 [4] | IC50 [5] | IC50 [6] | IC50 [7] | IC50 [8] | Compound | CC50 at 24 h [3] | IC50 [9] | Activity [10] | Activity [11] | Activity [12] | Activity [13] | Activity [14] | Activity [15] | Activity [16] | Activity [17] |
| --- | --- | --- | --- | --- | --- | --- | --- | --- | --- | --- | --- | --- | --- | --- | --- | --- | --- |
| > 100 µM | > 100 µM | > 100 µM | > 100 µM | 217 µM | > 100 µM | 421 µM | CCCCc1cn(Cc2ccccc2)nn1 | > 100 µM | > 100 µM | – | – | – | – | – | – | – | – |
| 219 µM | > 100 µM | > 100 µM | 171 µM | 49.6 µM | > 100 µM | 45.5 µM | C1=C(c2cn(Cc3ccccc3)nn2)CCCC1 | > 100 µM | > 100 µM | – | – | – | – | – | – | – | – |
| 146 µM | 139 µM | 231 µM | > 100 µM | 83.8 µM | 86.6 µM | 88.5 µM | COc1ccc(-c2cn(Cc3ccccc3)nn2)cc1 | > 100 µM | 158 µM | – | – | – | – | – | – | – | – |
| 651 µM | > 100 µM | 490 µM | > 100 µM | 99.1 µM | > 100 µM | 96.1 µM | c1ccc(Cn2cc(-c3ccccc3)nn2)cc1 | > 100 µM | 836 µM | – | – | – | – | – | – | – | – |
| 57.7 µM | 74.3 µM | 162 µM | 171 µM | 17.5 µM | 60.2 µM | 35.4 µM | FC(F)(F)c1ccc(-c2cn(Cc3ccccc3)nn2)cc1 | > 100 µM | 81 µM | – | – | – | – | – | – | – | – |
| 84.4 µM | 102 µM | 253 µM | > 100 µM | 94.1 µM | 79.5 µM | 66.4 µM | Cc1ccc(-c2cn(Cc3ccccc3)nn2)cc1 | > 100 µM | 129 µM | – | – | – | – | – | – | – | – |
| – | – | – | – | – | – | – | 1-Benzyl-4-(p-tolyl)-5-(diphenylstibano)-1H-1,2,3-triazole | – | – | Active | Active | Active | Active | Active | Active | Active | Active |

Source: ChEMBL document CHEMBL4177721, “Synthesis, antitumor activity, and cytotoxicity of 4-substituted 1-benzyl-5-diphenylstibano-1H-1,2,3-triazoles” (Bioorg Med Chem Lett, 2018)
